The source made the active and inactive calls. The rule behind the calls is not given here.
These compounds were tested on L1210 (assay: Antitumor activity against mouse L1210 cells allografted in ip dosed mouse administered qd on day 1, 5 and 9 relative to control).
Assay type: functional

Structure (SMILES)	Activity	T/C [%]
O=C1C(Cl)=C(N2CC2)C(=O)C(Cl)=C1N1CC1	inactive	
O=C1C(Br)=C(N2CC2)C(=O)C(Br)=C1N1CC1	inactive	
CC1(C)CN1C1=C(Cl)C(=O)C(N2CC2(C)C)=C(Cl)C1=O	inactive	
CC1CN1C1=C(Br)C(=O)C(N2CC2C)=C(Br)C1=O (stereo not given)	inactive	
CC1CN1C1=C(Cl)C(=O)C(N2CC2C)=C(Cl)C1=O (stereo not given)	inactive	
CC1(C)CN1C1=C(Br)C(=O)C(N2CC2(C)C)=C(Br)C1=O	inactive	
CCSC1=C(N2CC2)C(=O)C(SCC)=C(N2CC2)C1=O		130

What follows are compounds tested on L1210 (assay: Antitumor activity against mouse L1210 cells allografted in ip dosed mouse).
Assay type: functional, organism-based

Structure (SMILES)	Activity
NC1=C(Cl)C(=O)C(N)=C(Cl)C1=O	inactive
O=C1C(Cl)=C(N2CC2)C(=O)C(Cl)=C1N1CC1	inactive
CC(=O)NC1=C(Cl)C(=O)C(NC(C)=O)=C(Cl)C1=O	inactive
CC(=O)NC1=C(N2CC2(C)C)C(=O)C(NC(C)=O)=C(N2CC2(C)C)C1=O	inactive
CCOC(=N)C1=C(Cl)C(=O)C(C(=N)OCC)=C(Cl)C1=O	inactive
COC1=C(Br)C(=O)C(OC)=C(Br)C1=O	inactive
CCCSC1=C(N2CC2)C(=O)C(SCCC)=C(N2CC2)C1=O	inactive
O=C1C(Cl)=C(Cl)C(=O)C(Cl)=C1Cl	inactive

Reference: ChEMBL document CHEMBL3272309, “Potential central nervous system antitumor agents. Aziridinylbenzoquinones. 1” (J Med Chem, 1976)
